The source of these data is US20110230536A1, “PHENYLPYRAZOLE INHIBITORS OF STORE OPERATED CALCIUM RELEASE” (CalciMedica, Inc., priority 2008, published 2011).

Molecules are shown by their SMILES. Bounds are passed on as bounds.

Sequence of STIM1 and Orai1 in HEK293 cells (Q96D31 whole entry): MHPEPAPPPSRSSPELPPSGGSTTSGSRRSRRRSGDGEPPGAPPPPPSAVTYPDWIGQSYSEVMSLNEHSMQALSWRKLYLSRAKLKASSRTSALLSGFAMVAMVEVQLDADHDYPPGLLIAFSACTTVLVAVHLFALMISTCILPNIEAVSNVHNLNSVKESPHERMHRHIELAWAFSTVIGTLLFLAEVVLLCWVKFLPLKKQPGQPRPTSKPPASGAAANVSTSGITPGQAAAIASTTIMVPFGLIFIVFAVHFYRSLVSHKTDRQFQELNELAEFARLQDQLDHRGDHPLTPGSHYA

The subject of the first assay is Jurkat cells and colon cancer cells.
Test: not given
As to conditions: cited from earlier work.
For `Cc1nnsc1C(=O)Nc1ccc(-n2nc(C(F)(F)F)cc2C(F)(F)F)cc1` [BTP-2], the inhibition of proliferation result is “inhibits”.

A further assay concerns JR251 or RBL cells. The assay is described as follows: Fluorescence-based assay of store-operated calcium entry (JR251 or RBL cells). The assay is classed as cell-based. As to conditions: in either JR251 or RBL cells, or both. How it is done:
Fluorescence-based assays are used for screening the compounds described herein, such as compounds of Formulas (I) and (II) which modulate intracellular calcium. […]
B. Fluorescence-based Assay of Store-Operated Calcium Entry in RBL-2H3 Cells.
RBL-2H3 cells are obtained from ATCC and maintained in complete medium with 10% FBS at 37° C./6% CO2.
The day prior to performing the assay, RBL-2H3 cells are plated in 50 μL of complete medium in a 384 well plate. Cells are grown at 37° C./6% CO2 overnight and grow to 50-60% confluence by the next day. On the assay day, 1.5 μM Fluo-4-AM dye (Invitrogen) in complete medium is added and incubated for 1 hour at RT. Cells are washed twice in Ca^2+-free HBSS buffer and 35 μL Ca^2+-free HBSS buffer is added to each well. 10 μL of a test compound prepared in a Ca^2+-free HBSS solution at 4.5× of the desired concentration is added to a well and incubated for 5 minutes at RT. 10 μL of thapsigargin prepared in a Ca^2+-free HBSS solution at 5.5× of the desired concentration (5.5 uM) is added to each well and incubated for an additional 25 minutes. The initial baseline fluorescence signal is measured with a FLIPR^384 (Molecular Devices) plate reader. 5 μL of 12× calcium in HBSS (12 mM) is added and changes in cellular fluorescence are measured with the FLIPR^384 plate reader. In each well, the change in the fluorescent signal as a function of time due to calcium entry into the cell is determined by calculating the difference between the fluorescent signal measured 7 seconds after calcium addition and the initial baseline fluorescence signal at time zero (t=0). This parameter is designated Upslope. The IC50 value is calculated as the concentration at which 50% of the Upslope is inhibited. […]
Take `Cc1cc(C(F)(F)F)n(-c2ccc(C(=O)Nc3ccccc3Cl)cc2N)n1` [3-amino-N-(2-chlorophenyl)-4-(3-methyl-5-(trifluoromethyl)-1H-pyrazol-1-yl)benzamide]: the IC50 was < 10 µM.
Regarding `Cc1cc(C(F)(F)F)nn1-c1ccc(C(=O)Nc2ccccc2Cl)cc1N` [3-amino-N-(2-chlorophenyl)-4-(5-methyl-3-(trifluoromethyl)-1H-pyrazol-1-yl)benzamide], the IC50 is < 10 µM.
For `Cc1cc(C(F)(F)F)nn1-c1ccc(C(=O)Nc2ccc(Cl)cc2)cc1N` [3-amino-N-(4-chlorophenyl)-4-(5-methyl-3-(trifluoromethyl)-1H-pyrazol-1-yl)benzamide], the IC50 was < 10 µM.
On the same count and under the same terms, under `Cc1cc(C(F)(F)F)n(-c2ccc(NC(=O)c3ccc(Cl)cc3)cc2[N+](=O)[O-])n1` [4-Chloro-N-(4-(3-methyl-5-(trifluoromethyl)-1H-pyrazol-1-yl)-3-nitrophenyl)benzamide] stands < 10 µM.
The same measure, in the same setting: under `CCc1cc(CC)n(-c2ccc(NC(=O)c3ccc(Cl)cc3)cc2[N+](=O)[O-])n1` [4-chloro-N-(4-(3,5-diethyl-1H-pyrazol-1-yl)-3-nitrophenyl)benzamide] stands < 10 µM; under `COc1ccc(C(=O)Nc2ccc(-n3nc(C)cc3C(F)(F)F)c([N+](=O)[O-])c2)cc1` [4-methoxy-N-(4-(3-methyl-5-(trifluoromethyl)-1H-pyrazol-1-yl)-3-nitrophenyl)benzamide], < 10 µM; under `COc1ccc(C(=O)Nc2ccc(-n3nc(C(F)(F)F)cc3C)c([N+](=O)[O-])c2)cc1` [4-methoxy-N-(4-(5-methyl-3-(trifluoromethyl)-1H-pyrazol-1-yl)-3-nitrophenyl)benzamide], < 10 µM.
Same read-out and setting: under `COc1cc(C(=O)Nc2ccccc2Cl)ccc1-n1nc(C)cc1C(F)(F)F` [N-(2-chlorophenyl)-3-methoxy-4-(3-methyl-5-(trifluoromethyl)-1H-pyrazol-1-yl)benzamide] stands < 10 µM; under `COc1cc(C(=O)Nc2ccccc2Cl)ccc1-n1nc(C(F)(F)F)cc1C` [N-(2-chlorophenyl)-3-methoxy-4-(5-methyl-3-(trifluoromethyl)-1H-pyrazol-1-yl)benzamide], < 10 µM.
Take `Cc1cc(C(F)(F)F)n(-c2ccc(C(=O)Nc3ccccc3Cl)cc2[N+](=O)[O-])n1` [N-(2-chlorophenyl)-4-(3-methyl-5-(trifluoromethyl)-1H-pyrazol-1-yl)-3-nitrobenzamide]: the IC50 is < 10 µM.
For the compound `Cc1cc(C(F)(F)F)nn1-c1ccc(C(=O)Nc2ccccc2Cl)cc1[N+](=O)[O-]` [N-(2-chlorophenyl)-4-(5-methyl-3-(trifluoromethyl)-1H-pyrazol-1-yl)-3-nitrobenzamide], the IC50 is < 10 µM.
Consider `COc1ccc(C(=O)Nc2ccc(-n3nc(C)cc3C(F)(F)F)c(N)c2)cc1` [N-(3-amino-4-(3-methyl-5-(trifluoromethyl)-1H-pyrazol-1-yl)phenyl)-4-methoxybenzamide], for which the IC50 was < 10 µM.
Take `COc1ccc(C(=O)Nc2ccc(-n3nc(C(F)(F)F)cc3C)c(N)c2)cc1` [N-(3-amino-4-(5-methyl-3-(trifluoromethyl)-1H-pyrazol-1-yl)phenyl)-4-methoxybenzamide]: the IC50 is < 10 µM.
For the compound `COc1ccc(C(=O)Nc2ccc(-n3nc(-c4ccccc4)cc3C)c(N)c2)cc1` [N-(3-amino-4-(5-methyl-3-phenyl-1H-pyrazol-1-yl)phenyl)-4-methoxybenzamide], the IC50 was < 10 µM.
With `Cc1cc(-c2ccccc2)nn1-c1ccc(NC(=O)c2cccs2)cc1N` [N-(3-amino-4-(5-methyl-3-phenyl-1H-pyrazol-1-yl)phenyl)thiophene-2-carboxamide], the IC50 was < 10 µM.
Same read-out and setting: with `Cc1cc(-c2ccccc2)nn1-c1ccc(NC(=O)c2cccs2)cc1[N+](=O)[O-]` [N-(4-(5-methyl-3-phenyl-1H-pyrazol-1-yl)-3-nitrophenyl)thiophene-2-carboxamide] the figure was < 10 µM.
The same measure, in the same setting: under `COc1cc(C(=O)Nc2ccc(Cl)cc2)ccc1-n1nc(C(F)(F)F)cc1C` [N-(4-chlorophenyl)-3-methoxy-4-(5-methyl-3-(trifluoromethyl)-1H-pyrazol-1-yl)benzamide] stands < 10 µM.

Another assay concerns the target STIM1 and Orai1 in HEK293 cells (Homo sapiens, UniProt Q96D31).
Test: not given
As to conditions: HEK293 cells coexpressing STIM1 and Orai1; cited from earlier work.
For `NCCOB(c1ccccc1)c1ccccc1` [2-aminoethoxydiphenylborate], the “block of store-dependent Ca2+ entry” value is “completely blocked”.

In another assay the test system is Jurkat cells and colon cancer cells.
Test: not given
The following applies: cited from earlier work. This is another data set of the same source.
With `Cc1nnsc1C(=O)Nc1ccc(-n2nc(C(F)(F)F)cc2C(F)(F)F)cc1` [BTP-2], the “inhibition of SOCE” value is listed as “inhibits”.

What is called IC50 is the concentration needed to halve the response being measured.
